The values that follow come from US20100267928A1, “ACTIVATABLE DIAGNOSTIC AND THERAPEUTIC COMPOUND” (priority 2007, published 2010).

This series has as its system LN18 and U373 glioma cells. Conditions: additive alone in RPMI medium, LN18 and U373 glioma cells. As to the method:
Human malignant glioma cells (U373 and LN18) were seated into 25 cm^2 culture flasks which contained 3 ml RPMI medium. This was left as it is for one day so that enough matrix metalloprotenases (MMP-2) could accumulate.
In a second test the same compounds were again dissolved in the media of 12 flasks (130 μM), however now with MMP-2 inhibitor I (Calbiochem).
As a control four small flasks were used wherein both cell lines were incubated in a one day old medium with and also without APMA.
For the confocal laser scanning microscopy an inverted LSM510 laser scanning microscope (Karl Zeiss, Jena, Deutschland) (Objectives: LD Achroplan 40×0.6, Plan Neofluar 20×0.50, 40×0.75) was used [fluorescence excitation at 488 nm (argon-ion laser) and […] (helium-neon laser)]. Superimposed images of FITC- and alexa-stained cells were produced. All measurements were performed on living, non-fixed cells for three times.

Structures are written as SMILES.

As to `CCCCCCCC/C=C\CCCCCCCC(=O)NO` [MMP-2 inhibitor I, reference compound], the “damage of the cell vitality by additive in the medium” value is “did not result in a damage of the cell vitality”.
